Assays:
Conditions in all cases: 72 h
[1] = tested on: U2OS; test: relative viability EC50 (midpoint between 100% and the lowest measured viability); higher = less toxic
[2] = tested on: Calu-3; test: as above
[3] = tested on: Vero E6; test: as above
[4] = tested on: Caco-2; test: as above
[5] = tested on: HepG2; test: drug sensitivity score (DSS) for viability; higher = more toxic; extreme values may be limits of the assay
[6] = tested on: U2OS; test: as above
[7] = tested on: Calu-3; test: as above
[8] = tested on: Vero E6; test: as above
[9] = tested on: Caco-2; test: as above
[10] = tested on: HepG2; test: cell viability relative to DMSO; higher = less toxic
[11] = tested on: U2OS; test: as above
[12] = tested on: Calu-3; test: as above
[13] = tested on: Vero E6; test: as above
[14] = tested on: Caco-2; test: as above
[15] = tested on: HepG2; test: relative viability EC50 (midpoint between 100% and the lowest measured viability); higher = less toxic

Row | Compound | relative viability EC50 [1] [µM] | relative viability EC50 [2] [µM] | relative viability EC50 [3] [µM] | relative viability EC50 [4] [µM] | drug sensitivity score [5] | drug sensitivity score [6] | drug sensitivity score [7] | drug sensitivity score [8] | drug sensitivity score [9] | cell viability ([10]; 1 nM) [%] | cell viability ([10]; 10 nM) [%] | cell viability ([10]; 100 nM) [%] | cell viability ([10]; 1000 nM) [%] | cell viability ([10]; 10000 nM) [%] | cell viability ([11]; 1 nM) [%] | cell viability ([11]; 10 nM) [%] | cell viability ([11]; 100 nM) [%] | cell viability ([11]; 1000 nM) [%] | cell viability ([11]; 10000 nM) [%] | cell viability ([12]; 1 nM) [%] | cell viability ([12]; 10 nM) [%] | cell viability ([12]; 100 nM) [%] | cell viability ([12]; 1000 nM) [%] | cell viability ([12]; 10000 nM) [%] | cell viability ([13]; 1 nM) [%] | cell viability ([13]; 10 nM) [%] | cell viability ([13]; 100 nM) [%] | cell viability ([13]; 1000 nM) [%] | cell viability ([13]; 10000 nM) [%] | cell viability ([14]; 1 nM) [%] | cell viability ([14]; 10 nM) [%] | cell viability ([14]; 100 nM) [%] | cell viability ([14]; 1000 nM) [%] | cell viability ([14]; 10000 nM) [%] | relative viability EC50 [15] [µM]
1 | CNC(=O)c1ccc(Nc2ncc(C(F)(F)F)c(NCc3nccnc3N(C)S(C)(=O)=O)n2)cc1 [defactinib] | > 10 | > 10 | > 10 | > 10 | 3.6 | 1.5 | 0 | 2.6 | 0 | 100 | 95.2 | 107 | 81.4 | 68.1 | 98.2 | 100 | 93.8 | 96.5 | 75 | 97.5 | 86.2 | 106 | 88.1 | 95.6 | 106 | 99.8 | 101 | 84.2 | 76 | 95.4 | 101 | 90.1 | 100 | 89.9 | 
2 | CCOc1ccc2nc3cc(N)ccc3c(N)c2c1 [ethacridine-lactate-monohydrate] |  |  | > 10 | > 10 | 4.6 | 1.9 |  | 0 | 0 | 115 | 131 | 124 | 96.6 | 25.4 | 106 | 105 | 104 | 105 | 55.6 |  |  |  |  |  | 102 | 101 | 100 | 102 | 97.2 | 97.4 | 104 | 101 | 110 | 95.4 | 2.82
3 | CC(=O)O[C@]1(C(C)=O)CC[C@H]2[C@@H]3CCC4=CC(=O)CC[C@]4(C)[C@H]3CC[C@@]21C [hydroxyprogesterone-acetate] | > 10 | > 10 |  | > 10 | 0 | 0 | 0 |  | 0 | 98.7 | 95.5 | 110 | 90.3 | 102 | 99.2 | 101 | 106 | 99.9 | 98.7 | 103 | 115 | 91.3 | 95.7 | 93.8 |  |  |  |  |  | 95.8 | 98.6 | 90.2 | 104 | 98.9 | > 10
4 | N=C(N)c1ccc(/C=C/c2ccc(C(=N)N)cc2O)cc1 [hydroxystilbamidine] | > 10 | > 10 | > 10 | > 10 | 3 | 0 | 0 | 0 | 0 | 108 | 96.6 | 93.1 | 95.5 | 56.2 | 98 | 95.6 | 96.2 | 98.6 | 106 | 110 | 107 | 101 | 102 | 97.3 | 96.7 | 100 | 101 | 97.5 | 89.4 | 97.7 | 99.2 | 103 | 104 | 93.7 | 
5 | C#Cc1cccc(Nc2ncnc3cc4c(cc23)OCCOCCOCCO4)c1 [icotinib] | > 10 |  |  | > 10 | 0 | 0 | 7.2 | 3.5 | 0.8 | 86.4 | 103 | 87.7 | 102 | 99.4 | 96.4 | 95.6 | 98.1 | 93.7 | 96.6 | 93.8 | 104 | 90.2 | 66.1 | 50.8 | 91.5 | 100 | 92 | 81.8 | 66.9 | 104 | 100 | 98.5 | 87.4 | 90.7 | > 10
6 | CS(=O)(=O)CCNCc1ccc(-c2ccc3ncnc(Nc4ccc(OCc5cccc(F)c5)c(Cl)c4)c3c2)o1 [lapatinib] |  | 0.176 |  |  | 0 | 1.4 | 15.1 | 5.5 | 4.8 | 98 | 107 | 104 | 112 | 89.1 | 98.4 | 93.6 | 94 | 92.3 | 74.9 | 102 | 89.6 | 74.2 | 35.8 | 24.5 | 96.9 | 100 | 92.4 | 74.6 | 51.5 | 100 | 93.7 | 90.1 | 77.3 | 62.8 | > 10
7 | Cc1ccccc1C(OCCN(C)C)c1ccccc1 (centres undefined) [orphenadrine] | > 10 | > 10 |  | > 10 | 0 | 0 | 0 |  | 0 | 102 | 108 | 90.7 | 105 | 109 | 106 | 97.7 | 95.5 | 97.5 | 97.8 | 99.5 | 103 | 106 | 102 | 92.9 |  |  |  |  |  | 99.9 | 93.6 | 94.3 | 98.7 | 95.5 | > 10
8 | CCCCCCCCCCCCCCCCCCCCCCCCC(=O)O [pentacosanoic-acid] | > 10 | > 10 |  | > 10 | 0 | 0 | 0 |  | 0 | 112 | 109 | 98 | 102 | 111 | 98.3 | 98.5 | 97.4 | 95.9 | 106 | 91.9 | 97.1 | 92.5 | 92.2 | 102 |  |  |  |  |  | 99.2 | 106 | 103 | 96.8 | 101 | > 10
9 | O=C1c2ccccc2C(=O)C1c1ccccc1 [phenindione] | > 10 | > 10 |  | > 10 | 0 | 0 | 0 |  | 0 | 89.4 | 110 | 93.7 | 98.5 | 101 | 105 | 97.9 | 103 | 99.3 | 102 | 108 | 85.4 | 100 | 95.2 | 106 |  |  |  |  |  | 88.5 | 89.3 | 99.4 | 94.1 | 101 | > 10
10 | C=Cc1cc(O)cc2nc(-c3ccc(O)c(F)c3)oc12 [prinaberel] | > 10 | > 10 | > 10 | > 10 | 0.8 | 0 | 0 | 0 | 0.7 | 102 | 104 | 93.4 | 103 | 74.6 | 100 | 101 | 94.6 | 98.6 | 96.9 | 96.8 | 104 | 95.3 | 95.9 | 93.4 | 103 | 99.9 | 98 | 100 | 95.5 | 95.5 | 99.7 | 88.7 | 90 | 91.9 | 
11 | CC(C)c1nc(N(C)S(C)(=O)=O)nc(-c2ccc(F)cc2)c1/C=C/[C@@H](O)C[C@@H](O)CC(=O)O [rosuvastatin] | > 10 | > 10 |  | > 10 | 0 | 0 | 0 | 1.1 | 0.3 | 109 | 110 | 98.4 | 106 | 96.1 | 101 | 96.7 | 102 | 99.5 | 98 | 98.5 | 91.3 | 101 | 105 | 103 | 101 | 97.9 | 99.6 | 100 | 72.7 | 103 | 105 | 100 | 101 | 83.7 | > 10
12 | Cc1ccc(C(=O)Nc2ccc(S(=O)(=O)O)c3cc(S(=O)(=O)O)cc(S(=O)(=O)O)c23)cc1NC(=O)c1cccc(NC(=O)Nc2cccc(C(=O)Nc3cc(C(=O)Nc4ccc(S(=O)(=O)O)c5cc(S(=O)(=O)O)cc(S(=O)(=O)O)c45)ccc3C)c2)c1 [suramin] | > 10 | > 10 |  | > 10 | 0 | 0 | 0 |  | 0 | 97.4 | 109 | 102 | 103 | 91.8 | 99.9 | 94.7 | 99.4 | 96.7 | 100 | 96.3 | 101 | 94.8 | 103 | 111 |  |  |  |  |  | 93.5 | 94.5 | 99 | 90.9 | 97.5 | > 10
13 | CC1(C)S[C@@H]2[C@H](NC(=O)[C@H](C(=O)O)c3ccsc3)C(=O)N2[C@H]1C(=O)O [ticarcillin] | > 10 | > 10 |  | > 10 | 0 | 0 | 0 |  | 0 | 106 | 97.3 | 87.7 | 102 | 88.8 | 101 | 100 | 98.6 | 98.1 | 101 | 91.5 | 106 | 109 | 97.7 | 103 |  |  |  |  |  | 103 | 97.6 | 91.1 | 102 | 93.6 | > 10
14 | Cn1cncc1[C@@](N)(c1ccc(Cl)cc1)c1ccc2c(c1)c(-c1cccc(Cl)c1)cc(=O)n2C [tipifarnib] |  |  | > 10 |  | 10.6 | 6.4 | 8.9 | 2.5 | 7.8 | 98.4 | 95.2 | 74.3 | 63.5 | 23.3 | 95.3 | 96.7 | 88.9 | 70.9 | 53.9 | 88.7 | 92.1 | 81.6 | 63.2 | 54.5 | 103 | 94.2 | 95.1 | 82.7 | 76.9 | 86.5 | 90.7 | 80.3 | 73.1 | 59.9 | 0.532
15 | NC(=S)N/N=C/c1ncccc1N [triapine] |  |  |  |  | 5 | 1 | 1.2 | 3.9 | 2.4 | 103 | 97.7 | 119 | 93 | 30.6 | 96.8 | 99.6 | 95.8 | 102 | 72.8 | 106 | 94.1 | 101 | 101 | 70.5 | 97 | 98.3 | 98.1 | 92.3 | 50.3 | 97.2 | 98.7 | 95.3 | 92.1 | 68.6 | 2.34

From the supplement of paper PMC13380429
